Molecules are shown by their SMILES. Several values for one entry are separate records, joined by “and”; a condition that tells them apart may be missing. Equal values may be shown once.

Experiment [1] deals with secreted phospholipase B (PLB activity). The experiment is described as follows: Radiometric assay, secreted PLB activity. The experiment is classed as biochemical, Cryptococcus neoformans H99. The essentials: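 Secreted enzyme was taken from cell-free supernatant of Cryptococcus isolate H99 cells incubated 24 h at 37° C. Reactions at 37° C, pH 4.0 imidazole acetate, used 800 μM DPPC with [14C]-dipalmitoyl PC and 1 μg protein for 22 min. PLB was measured as radiolabelled PC loss by TLC, with inhibition expressed versus inhibitor-free control; compounds were tested at 25 and 250 μM, then 2.5 and 0.25 μM.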

Experiment [2] relates to secreted phospholipase B (LPL/LPTA activities). The experiment is described as follows: Radiometric assay, secreted LPL and LPTA activities (Lyso assay). The experiment is classed as biochemical, Cryptococcus neoformans H99. The gist of the method:
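Cell-free supernatant from C. neoformans H99 (incubated 24 h at 37° C in imidazole buffer, pH 5.5) with 1 μg total protein and 200 μM lyso-PC incl. 1-[^14C]palmitoyl lyso-PC, 15 s reaction. LPL from substrate loss, LPTA from radiolabelled PC formed, after extraction and TLC; inhibitors tested at 25 and 250 μM, then 2.5 and 0.25 μM, inhibition vs inhibitor-free control, triplicate.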

The subject of experiment [3] is Candida albicans ATCC 10231. The experiment is described as follows: Antifungal susceptibility testing, microdilution MIC. Conditions: Candida albicans, ATCC10231; Table 7; read-out: MIC (μM) C. alb. (10231). The format is cell-based. The essentials: (§1)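 Standard microdilution method, run in duplicate, using serial dilutions of cationic compounds.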
Experiment [4] relates to Cryptococcus neoformans ATCC 90112. The description is as above. The experiment is classed as cell-based. Conditions: Cryptococcus neoformans, ATCC90112; Table 7; read-out: MIC (μM) Crypto. (ATCC 90112). The essentials: as §1
The test system of experiment [5] is MRSA (methicillin resistant S. aureus). The experiment in a line: In vitro antibacterial activity, NCCLS M7-A6. The note with it: Staphylococcus aureus, read-out: MIC MRSA (methicillin resistant S. aureus). The experiment is classed as cell-based. Here is the method:
(§2) Two bis-cationic compounds were tested for antibacterial activity. The assay used was that published by the National Committee for Clinical Laboratory Standards. 2003. Methods for Dilution Antimicrobial Susceptibility Tests for Bacteria That Grow Aerobically: Approved Standard—Sixth Edition. NCCLS document M7-A6. Villanova, Pa., USA.

The subject of experiment [6] is Pseudomonas ariginosa 122. The experiment is described as follows: In vitro antibacterial activity, NCCLS M7-A6. The experiment is classed as cell-based. Here is the method:
as §2

Experiment [7] deals with VRE (Vancomycin resistant Enterococcus). The experiment in a line: In vitro antibacterial activity, NCCLS M7-A6. The format is cell-based. The method, then:
as §2

Experiment [8] has as its system Aspergillus flavus ATCC 204 304. The experiment is described as follows: In vitro antifungal activity, filamentous fungi, NCCLS M38-A. The format is cell-based. The note with it: Aspergillus flavus, ATCC204. From the text: (§3) The assay used for filamentous fungi (Aspergillus; Scedosporium; Fusarium) was that published by the National Committee for Clinical Laboratory Standards. 2002. Reference Method for Broth Dilution Antifungal Susceptibility Testing of Filamentous Fungi: Approved Standard. NCCLS document M38-A.Villanova, Pa., USA.

For experiment [9], the system named is Aspergillus fumigatus ATCC 204 305. The experiment is described as above. The experiment is classed as cell-based. Conditions: Aspergillus fumigatus, ATCC204.
From the text: as §3

The test system of experiment [10] is Aspergillus terreus ATCC 03-232-378. The description is as above. The format is cell-based. The note with it: Aspergillus terreus, ATCC03.
From the text: as §3

Experiment [11] has as its system Fusarium solani 04-132-4207. Described as above. The format is cell-based. The note with it: Fusarium solani, 041324207.
From the text: as §3

Experiment [12] relates to Scedosporium apiospermum 1-003-056. The description is as above. The format is cell-based. The note with it: Scedosporium apiospermum, 1003056.
From the text: as §3

Experiment [13] has as its system Scedosporium prolificans 1-003-040. Described as above. The format is cell-based. Conditions: Lomentospora prolificans, 1003040.
From the text: as §3

The subject of experiment [14] is Candida albicans ATCC 10231. The experiment is described as follows: In vitro antifungal activity, yeasts, NCCLS M27-A. The experiment is classed as cell-based. Conditions: Candida albicans, ATCC10231; Table 9. From the text: (§4) The assay used for yeasts (Candida; Cryptococcus) is that of the National Committee for Clinical Laboratory Standards. 1997. Reference Method for Broth Dilution Antifungal Susceptibility Testing of Yeasts: Approved Standard. NCCLS document M27-A.Villanova, Pa., USA as published in Ghannoum, M. A., A. S. Ibrahim, Y. Fu, M. C. Shafiq, J. E Edwards, Jr. and R. S. Criddle. 1992. Susceptibility testing of Cryptococcus neoformans: A microdilution technique. J. Clin. Microbiol. 30:2881-2886.

Experiment [15] has as its system Cryptococcus neoformans ATCC 90112. The experiment in a line: In vitro antifungal activity, yeasts, NCCLS M27-A. The note with it: Cryptococcus neoformans, ATCC90112; Table 9. The experiment is classed as cell-based.
From the text: as §4

For the compound `CCCC[N+](CCCC)(CCCC)CCCCCCCCCCCCCCCC[N+](CCCC)(CCCC)CCCC` [1,16-bis-(tributylammonium)hexadecane], the figures for the “PLB assay (% inhibition)” value in [1] (25 μM) and in experiment [1] (250 μM) were 48% and 62%, respectively. In addition, the “Lyso assay (% inhibition) LPL” value is on record as 5% in experiment [2] (25 μM) and 10% in [2] (250 μM). The “Lyso assay (% inhibition) LPTA” value in experiment [2] (25 μM) is given as 15%; in [2] (250 μM) it was 6%. The minimal inhibitory concentration (MIC) (as a rule, the smallest concentration in the dilution series that meets the test's criterion for growth inhibition) in experiment [3] is 5.5 µM; in experiment [4], 2.2 µM; in [5], 5 µg/mL and 11 µM; in [6], 106 µg/mL and 160 µM; in [7], 3.6 µg/mL and 5.5 µM; in experiment [8], 14.6 µg/mL and 22 µM. In addition, the minimal inhibitory concentration (MIC) in experiment [9] was 7.3 µg/mL and 11 µM; in experiment [10] it was 7.3 µg/mL and 11 µM; in [11] it was 14.6 µg/mL and 22 µM; in [12] it was 3.6 µg/mL and 5.5 µM; in experiment [13] it was 7.3 µg/mL and 11 µM; in experiment [14] it was 7.2 µg/mL and 11 µM. Moreover, the MIC in experiment [15] was 3.6 µg/mL and 5.5 µM.

These data come from patent publication US7947854B2, “Bis-cationic compounds and use thereof” (The University of Sydney, priority 2003, dated 2011).
